Consider 69 molecules from PubChem BioAssay AID489020 (Sanford-Burnham Center for Chemical Genomics, 2010).

pIC50: −log10 of the molar value. Activity calls are given as the source filed them.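 The calls were made as follows: active = mean IC50, the dose halving TNF-driven NF-kB light signal, at or below a set limit; inactive = the rest.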

For this test, the system named is HEK-293T NF-kB-Luc, TNFa-induced, luminescence, 14 h. Nature of the test: TNFa-driven NF-kB luciferase inhibition, HEK-293T – cell-based, HEK-293T NF-kB-Luc, luminescence, hits from both screens, counter-screen for BCR/TCR NF-kB inhibitor project, dose response (AID 489020;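 also: TNF-alpha stimulus at 0.1 ng/mL added with the seeded cells; selectivity counterscreen for hits from B- and T-cell receptor NF-kB screens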). (In general: A counterscreen serves to expose hits that act by an unwanted route or on another target.)

The pIC50 is the IC50 on a negative log10 scale, so that one unit is a factor of ten. In the case of `Cc1cc2sc3ccc(C#CC4(O)CCCCC4)cc3c(=O)c2cc1C`, the pIC50 was over 6.80.
In the case of `CCOc1ccc(NC(=O)Nc2cccc(C(=O)O)c2)cc1`, the pIC50 is 5.73.
Still for that read-out and setting: the value for `Cc1ccc(OCCN2CCN(c3ncnc4sc(C)c(C)c34)CC2)cc1` was over 6.80.
As usually defined, the IC50 is the concentration that inhibits the measured activity by half. In the case of `COc1cc(/C=N/NC(=S)Nc2cccc(C(=O)O)c2)ccc1O`, the IC50 was 23400 nM (inactive).
Regarding `COc1ccccc1C(=O)Nc1nc2ccccc2[nH]1`, the pIC50 is 6.10.
For `C[C@H](NC(=O)c1nc[nH]c1C(=O)N[C@@H](C)C(=O)OCc1ccccc1)C(=O)OCc1ccccc1`, the IC50 is > 80000 nM (inactive).
As for `Nc1ncnc2c1ccn2[C@@H]1O[C@H](CO)[C@@H](O)[C@H]1O`, the pIC50 was 5.13.
Still for that read-out and setting: the value for `Cc1cc(C(=O)COC(=O)c2ccccc2O)c(C)n1CC1CCCO1` (centres undefined) was 6.42; that for `COC1=CC(=O)[C@]2(C=C1OC)OC[C@@H]1Oc3c(ccc4c3C=CC(C)(C)O4)C(=O)[C@@H]12` was 6.21; that for `CCn1c(C)nc2cc(-c3nc4n(n3)Cc3ccccc3-4)ccc21` was 6.62.
The same measure, in the same setting: the value for `Cn1nc(CC(=O)Nc2ccc3c(c2)CCC3)c2ccccc2c1=O` was 6.66; that for `CCCCCCCCn1ccc(=N)cc1` was 4.97.
The same measure, in the same setting: the value for `COc1ccc(/C=C/c2cc(-c3ccc(C)cc3)o[n+]2C)cc1` was 5.17; that for `Cc1cc(N2CCN(c3nc4ccccc4s3)CC2)n2ncnc2n1` was 5.90; that for `CCC(C)(C)c1ccc(OCCCC[n+]2ccc(C)cc2)c(C(C)(C)CC)c1` was 5.09.
On to `Cc1nn(C(C)(C)C)c(C)c1/C=N/OC(=O)Nc1ccc(Cl)cc1`, for which the pIC50 was over 6.80.
In the case of `N#CC(c1cccc(Cl)c1)c1ccc2c(C(F)(F)F)cc(C(F)(F)F)nc2n1` (centres undefined), the IC50 was > 80000 nM (inactive).
As for `CC(C)(C)c1ccc(C(=O)Nc2ccc(CC(=O)O)cc2)o1`, the pIC50 was 6.77.
Same read-out and setting: the value for `CCOc1cc(S(=O)(=O)NCc2ccncc2)ccc1Cl` was over 6.80.
Still for that read-out and setting: next, `COc1cccc2c1C(CO)N1C(C#N)C3CC(C(=O)O)C(C1C2)N3C` (centres undefined): over 6.80; `COC(=O)Cc1ccc(NC(=O)c2ccc(C(C)(C)C)cc2)cc1`: 6.36.
`CCOc1ccc(/C=C2\SC(=S)N(CCC(=O)O)C2=O)cc1`: the IC50 is 34200 nM (inactive).
In the case of `CC1CCCN(c2ccc([N+](=O)[O-])cc2C(=O)c2ccccc2)C1` (centres undefined), the pIC50 was 5.00.
The same measure, in the same setting: next, `CCCCC[n+]1cccc2c3ccccc3ccc21`: 5.67; `CCOc1ccc(S(=O)(=O)NCc2ccncc2)cc1`: 6.68; `CC(=O)OC[C@]12CCC(C)=C[C@H]1O[C@@H]1[C@H](O)[C@@H](OC(C)=O)[C@@]2(C)[C@]12CO2`: over 6.80.
The same measure, in the same setting: the value for `COc1ccc(-c2nc(-c3ccccn3)no2)cc1` was 5.70; that for `COCCn1c(C)cc(C2=NNC(=NC3CC3)SC2)c1C` was 6.48; that for `COc1ccccc1C(=O)Nc1nc(-c2ccc(S(=O)(=O)N3CCOCC3)cc2)cs1` was 5.93.
Same read-out and setting: next, `CC1(c2ccc3ccccc3c2)NC(=O)N(CC(=O)N2CCN(Cc3ccc(C#N)cc3)CC2)C1=O` (centres undefined): 6.68.
With `COC(=O)CCn1nnc(-c2ccc(C(C)C)cc2)n1`, the negative logarithm of the IC50 (pIC50) was 6.57.
Consider `O=C(COC(=O)c1ccc[nH]c1=O)Nc1ccc(N2CCCCC2)cc1`, for which the negative-log IC50 (pIC50) is 5.92.
`O=C(c1ccc(Br)cc1)c1cc([N+](=O)[O-])ccc1N1CCCCC1`: the IC50 was 24500 nM (inactive).
Turning to `Cc1ccc(C(=O)Nc2cccc(C(F)(F)F)c2)cc1NC(=O)c1ccno1`, the IC50 is > 80000 nM (inactive).
Take `Cc1ccc(Cn2ccsc2=NC(=O)CCl)cc1`: the pIC50 is 4.81.
The same measure, in the same setting: the value for `CCOc1ccc(-c2cc(CCCC(=O)Nc3cccc(OC)c3)no2)cc1` was 4.85; that for `O=C(Nc1ccc([N+](=O)[O-])cc1)C(=O)Nc1cccc(C(=O)O)c1` was 5.37.
Still for that read-out and setting: next, `CN(C)c1cc[n+](CC(=O)c2ccc(-c3ccccc3)cc2)cc1`: 5.40; `NC1=NC[C@H](Cc2ccc(O)cc2)N1CCCCC1CCCCC1`: 4.89; `COc1cc(SC)ccc1C(=O)Nc1nc2ccccc2[nH]1`: 6.70.
Consider `COc1ccc(CCNc2ncnc3sc(C)cc23)cc1OC`, for which the pIC50 was over 6.80.
With `Cc1sc2ncnc(N3CCN(CCOc4ccc(Cl)cc4)CC3)c2c1C`, the pIC50 is over 6.80.
`C=C1C(=O)O[C@@H]2C[C@@H](C)[C@@H]3C=CC(=O)[C@@]3(C)[C@@H](OC(C)=O)[C@H]12`: the IC50 was > 80000 nM (inactive).
As for `Cn1nccc1C(=O)NC1CCCc2c1cnn2-c1ccccc1F` (centres undefined), the pIC50 was over 6.80.
In the case of `CCc1cc2c(Sc3nc4ccccc4s3)ncnc2s1`, the IC50 was 21300 nM (inactive).
On to `COc1ccc(/C=C2\SC(=O)N(CCCC(=O)Nc3cc(Cl)ccc3C(=O)O)C2=O)cc1`, for which the pIC50 is 5.95.
Take `CC(C)(C)c1ccc(C(=O)N2CCCCCC2=O)cc1`: the pIC50 is 5.75.
Regarding `Cc1cc([N+](=O)[O-])nn1Cc1ccccc1F`, the IC50 is > 80000 nM (inactive).
Regarding `COc1ccc(CN(C)c2ccc(S(=O)(=O)N3CCN(C)CC3)cc2[N+](=O)[O-])cc1OC`, the pIC50 was over 6.80.
The same measure, in the same setting: next, `O=C(CN1C(=O)c2ccccc2S1(=O)=O)c1ccc2c(c1)OCCO2`: 6.70; `CCN1/C(=C\c2ccc3ccccc3[n+]2CC)Sc2cc(C)ccc21`: 6.20.
With `c1ccc(-c2ccc(-c3nc(-c4ccccn4)no3)cc2)cc1`, the pIC50 is 5.77.
Regarding `CC(Nc1ncnc2sccc12)c1ccccc1` (centres undefined), the pIC50 was 6.22.
For the molecule `N=c1ccn2c(n1)O[C@H]1[C@@H](CO)[C@H](O)O[C@H]12`, the IC50 is > 80000 nM (inactive).
Consider `O=C(Nc1nc(-c2ccc(F)c(F)c2)cs1)c1ccc(OCC2CCCO2)cc1` (centres undefined), for which the pIC50 is 5.81.
The same measure, in the same setting: the value for `Cc1cc(Cl)c(S(=O)(=O)N2CCN(c3ccc(F)cc3)CC2)cc1OCC(=O)NC1CCCCC1` was over 6.80; that for `CCCCCCCCNc1ncnc2ccccc12` was over 6.80.
For `C=C1C(=O)O[C@@H]2C[C@@H](C)[C@@H]3C=CC(=O)[C@@]3(C)[C@@H](O)[C@H]12`, the IC50 is > 80000 nM (inactive).
As for `COc1cccc2c1C(=O)c1c(O)c3c(c(O)c1C2=O)C[C@@](O)(C(=O)CO)C[C@@H]3O[C@H]1C[C@H](N)[C@@H](O)[C@H](C)O1`, the IC50 was > 80000 nM (inactive).
On to `O=C(Nc1cccc(C(=O)O)c1)Nc1ccc2c(c1)OCO2`, for which the pIC50 was 5.66.
Still for that read-out and setting: the value for `C#CC(=O)N(c1cc(OC)ccc1OC)C(C(=O)NC1CCCC1)c1cccs1` (centres undefined) was 5.41; that for `CCN(CC)S(=O)(=O)c1ccc(Oc2ccc(S(=O)(=O)N(CC)CC)cc2)cc1` was 6.34.
In the case of `COc1cc2nc(NC(=O)c3ccccc3)sc(=O)c2cc1OC`, the IC50 was > 80000 nM (inactive).
Regarding `COc1cc(CSc2nnnn2-c2ccc(C)cc2)cc(OC)c1OC`, the pIC50 was 6.33.
The same measure, in the same setting: next, `COc1ccc(CNc2ncc(-c3ccc(F)cc3)n2C)c2ccccc12`: 4.75; `CCN1/C(=C/c2ccc3cc(C)ccc3[n+]2CC)Sc2ccccc21`: 6.49.
On the same count and under the same terms, the value for `C#CC(=O)N(c1cccc(OC)c1)C(C(=O)NC1CCCC1)c1cccs1` (centres undefined) was 5.58.
In the case of `Cn1nc(CC(=O)Nc2ccc3c(c2)OCCO3)c2ccccc2c1=O`, the pIC50 was 6.22.
Turning to `COc1ccc(CCNc2c(C)c(C)nc3ncnn23)cc1`, the pIC50 was 6.36.
